Marks after values point to notes of the source that are not given here.
What was measured:
[1] = In vitro metabolic stability, rat liver microsomes; type: in vitro ADME; conditions: CLint expressed as mL/min/g liver
Method: (§1) The objective of this study was to determine metabolic stability of test items in rat and human liver microsomes. Verapamil and dextromethorphan were used as positive controls for microsomal incubation.
(§2) Incubation medium was prepared by combining 11.2 mL of potassium phosphate monobasic and 38.8 mL of potassium phosphate dibasic, diluted to 1 L with water. Cryopreserved microsomes were thawed and kept on ice until use. Microsomes were then diluted in incubation to a protein concentration of 0.56 mg/mL. […]
(§3) NADPH regenerating system solution was prepared by dissolving 1.7 mg of NADP, 7.8 mg of G6P and 6 units of G6P-Dehydrogenase in 1 mL of 2% sodium bicarbonate solution (prepared by dissolving 20 g of NaHCO3 in 1 L of water).
(§4) Test compounds were separately dissolved in DMF to obtain 10 mM stock solutions that were further diluted in water/acetonitrile 50/50 (v/v) to obtain the corresponding 50 μM working solutions. Verapamil and dextromethorphan were dissolved in DMF in order to obtain a 10 mM verapamil solution and 10 mM dextromethorphan solution. These solutions were then diluted in the incubation medium in order to obtain a 50 μM verapamil working solution and a 50 μM dextromethorphan working solution.
(§5) 800 μL-aliquots of NADPH regenerating system were pre-warmed at 37° C. for 5 minutes. 5 μL of 50 µM test compounds, verapamil or dextromethorphan were added to 445 μL of the 0.56 mg/mL microsomes solution and the incubation mixture was pre-warmed in a 96 deep well 2 mL plate (incubation plate) at 37° C. for 5 minutes. The incubation reactions were initiated by adding 50 μL of pre-warmed NADPH regenerating system to the incubation mixtures. 50 μL aliquots were taken from incubation mixtures at: 0, 3, 6, 9, 15, and 30 minutes and the reactions were stopped by adding 100 μL of aceronitrile with the corresponding internal standard. Samples were then diluted with 120 μL of water (final organic solvent percentage at 37%) and centrifuged at 3000 rpm for 10 minutes, prior the LC-MS/MS analysis.
(§6) Metabolic stability was calculated from the peak area ratio of the remaining test compound with internal standard versus time. The intrinsic clearance (CLint) was determined from the first order elimination constant k (min^−1) (obtained from GraphPad by plotting the natural logarithm of the peak area ratio of the remaining test item with internal standard versus time), using the actual volume of the incubation V (mL), the amount of hepatocytes in the incubation M (million cells) and the hepatocellularity number per a liver Hn (120 for human).

[2] = In vitro metabolic stability, human liver microsomes; type: in vitro ADME; conditions: CLint expressed as mL/min/g liver
Method: as §1, §2, §3, §4, §5, §6

Kv3.1 = target: T1, Kv3.1 (Homo sapiens, UniProt P48547); conditions: Table 5, RE12 and RE13; based on EC50 value as reported in WO2021214090; cited from earlier work
T1 sequence (P48547 1-511): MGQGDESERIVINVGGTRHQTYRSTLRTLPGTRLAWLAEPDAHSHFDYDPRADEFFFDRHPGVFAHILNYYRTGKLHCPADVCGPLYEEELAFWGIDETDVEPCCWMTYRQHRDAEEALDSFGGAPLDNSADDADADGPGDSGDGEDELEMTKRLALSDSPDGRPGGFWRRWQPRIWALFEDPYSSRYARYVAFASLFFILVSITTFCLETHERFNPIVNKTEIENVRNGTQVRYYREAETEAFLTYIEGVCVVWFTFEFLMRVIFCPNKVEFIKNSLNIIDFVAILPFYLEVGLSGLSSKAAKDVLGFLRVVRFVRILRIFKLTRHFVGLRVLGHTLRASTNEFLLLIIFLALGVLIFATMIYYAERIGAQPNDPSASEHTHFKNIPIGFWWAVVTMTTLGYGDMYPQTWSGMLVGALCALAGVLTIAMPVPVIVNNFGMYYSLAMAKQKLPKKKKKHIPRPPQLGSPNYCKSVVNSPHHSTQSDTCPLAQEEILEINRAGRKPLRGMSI

[3] = Determination of blood and brain tissue binding (equilibrium dialysis); type: in vitro ADME, Sprague Dawley rat; conditions: Sprague Dawley, 5 h at 37° C.; for fraction unbound at 5 h, 5 micromolar: 1:2 (w/v) in artificial CSF, rat brain homogenate, read-out: % FU Brain; for fraction unbound at 5 h, 0.5 micromolar: whole blood diluted 1:1 (v/v) with isotonic phosphate buffer, rat whole blood, read-out: % FU Blood
Method: Sprague Dawley rat whole blood, collected on the week of the experiment using K3-EDTA as an anti-coagulant, is diluted with isotonic phosphate buffer 1:1 (v/v). Sprague Dawley rat whole brain, stored frozen at −20° C., is thawed and homogenised in artificial cerebrospinal fluid (CSF) 1:2 (w/v).
An appropriate amount of test compound is dissolved in DMSO to give a 10 millimolar solution. Further dilutions, to obtain a 166.7 micromolar working solution are then prepared using 50% acetonitrile in MilliQ water. This working solution is used to spike the blood to obtain a final concentration of 0.5 micromolar in whole blood. Similarly, the working solution is used to spike brain samples to obtain a final concentration of 5 micromolar in whole brain. From these spiked blood and brain preparations, control samples (n=3), are immediately extracted and used to calculate the initial recovery of the test items.
150 microL of compound-free buffer (isotonic phosphate buffer for blood or artificial CSF buffer for brain) is dispensed in one half-well and 150 microL of spiked matrix (blood or brain) is loaded in the other half-well, with the two halves separated by a semi-permeable membrane. After an equilibration period of 5 h at 37° C., 50 microL of dialysed matrix (blood or brain) is added to 50 microL of corresponding compound-free buffer, and vice-versa for buffer, such that the volume of buffer to matrix (blood or brain) remains the same. Samples are then extracted by protein precipitation with 300 microL of acetonitrile containing rolipram (control for positive ionization mode) or diclofenac (control for negative ionization mode) as internal standards and centrifuged for 10 min at 3000 rpm. Supernatants are collected (100 microL), diluted with 27% AcN in MilliQ water (200 microL) and then injected into an HPLC-MS/MS or UPLC-MS/MS system to determine the concentration of test compound present.
Blood and brain tissue binding are then determined using the following formulas:
where Afu=apparent fraction unbound; Buffer=analyte/internal standard ratio determined in the buffer compartment; Blood=analyte/internal standard ratio determined in the blood compartment; Brain=analyte/internal standard ratio determined in the brain compartment.
where: fucr=Fraction unbound corrected; D=matrix dilution factor (D=2 for blood and D=3 for brain). then: […]

| Cli rat [1] [mL/min/g] | Cli human [2] [mL/min/g] | fraction unbound at 5 h, 5 micromolar [3] | fraction unbound at 5 h, 0.5 micromolar [3] | Structure (SMILES) | Kv3.1 pEC50 (Kv3.1) |
| --- | --- | --- | --- | --- | --- |
| 1.5 | 1.7 | 0.006 | 0.007 | Cc1ccc(Oc2ccc(-n3c(=O)[nH]c4cncnc43)cn2)cc1OC(F)(F)F [RE12, reference compound] | 5.2* |
| 1.3 | 0.6 | 0.005 | 0.013 | Cc1ccc(Oc2ccc(-n3c(=O)[nH]c4cnccc43)cn2)cc1OC(F)(F)F [RE13, reference compound] | 5.6** |
